In PubChem BioAssay AID1963973 (Molecular Pharmacology Branch, DTP, NCI, 2024):

System: 883617-216-R-J1-PDC tumor spheroids, viability
Test: Anticancer human tumor 883617-216-R-J1-PDC patient-derived bladder carcinoma cell line growth inhibition [PI3K]
Conditions: spheroids with HUVEC and MSC; for IC50: curve of first compound; for viability, T/C: stronger effect = lower value; active = viability on the fitted dose curve at most 10% of control; inactive = the rest
Procedure, shortened: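 Complex 3D spheroids (cancer cells + endothelial HUVEC + mesenchymal stem cells); drug pairs of targeted agent x inavolisib/alpelisib/duvelisib/copanlisib; half-log series from ~Cmax, max 10 microM if Cmax unknown; endpoint viability.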

[1] = second compound 0.0316 µM, first compound 0.0316 µM
[2] = second compound 0.0316 µM, first compound 0.1 µM
[3] = second compound 0.0316 µM, first compound 0.316 µM
[4] = second compound 0.0316 µM, first compound 1 µM
[5] = second compound 0.1 µM, first compound 0.0316 µM
[6] = second compound 0.1 µM, first compound 0.1 µM
[7] = second compound 0.1 µM, first compound 0.316 µM
[8] = second compound 0.1 µM, first compound 1 µM
[9] = second compound 0.316 µM, first compound 0.0316 µM
[10] = second compound 0.316 µM, first compound 0.1 µM
[11] = second compound 0.316 µM, first compound 0.316 µM
[12] = second compound 0.316 µM, first compound 1 µM
[13] = second compound 1 µM, first compound 0.0316 µM
[14] = second compound 1 µM, first compound 0.1 µM
[15] = second compound 1 µM, first compound 0.316 µM
[16] = second compound 1 µM, first compound 1 µM
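Also: spheroids exposed to agents for 7 days before the viability read.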

CCN1CCN(Cc2ccc(Nc3ncc(F)c(-c4cc(F)c5nc(C)n(C(C)C)c5c4)n3)nc2)CC1 + COc1c(OCCCN2CCOCC2)ccc2c3n(c(=NC(=O)c4cnc(N)nc4)nc12)CCN3
< 0.00316 µM: IC50 (second compound 0.0316 µM) | IC50 (second compound 0.1 µM) | IC50 (second compound 0.316 µM) | IC50 (second compound 1 µM)
0.0356 µM: IC50 (second compound 0.01 µM)
0.234 µM: IC50 (second compound 0.00316 µM)
active: viability, T/C (second compound 0.316 µM, first compound 0.00316 µM) 4.77% | viability, T/C (second compound 0.316 µM, first compound 0.01 µM) 4.9% | viability, T/C [9] 4.63% | viability, T/C [10] 4.67% | viability, T/C [11] 4.91% | viability, T/C [12] 6.41% | viability, T/C (second compound 1 µM, first compound 0.00316 µM) 2.94% | viability, T/C (second compound 1 µM, first compound 0.01 µM) 3% | viability, T/C [13] 3.07% | viability, T/C [14] 3.49% | viability, T/C [15] 4.44% | viability, T/C [16] 6.38%
inactive: viability, T/C (second compound 0.00316 µM, first compound 0.00316 µM) 91.3% | viability, T/C (second compound 0.00316 µM, first compound 0.01 µM) 83.5% | viability, T/C (second compound 0.00316 µM, first compound 0.0316 µM) 70.2% | viability, T/C (second compound 0.00316 µM, first compound 0.1 µM) 57.2% | viability, T/C (second compound 0.00316 µM, first compound 0.316 µM) 47.6% | viability, T/C (second compound 0.00316 µM, first compound 1 µM) 42.3% | viability, T/C (second compound 0.01 µM, first compound 0.00316 µM) 65.5% | viability, T/C (second compound 0.01 µM, first compound 0.01 µM) 62.2% | viability, T/C (second compound 0.01 µM, first compound 0.0316 µM) 51.4% | viability, T/C (second compound 0.01 µM, first compound 0.1 µM) 40.4% | viability, T/C (second compound 0.01 µM, first compound 0.316 µM) 40.7% | viability, T/C (second compound 0.01 µM, first compound 1 µM) 38.8% | viability, T/C (second compound 0.0316 µM, first compound 0.00316 µM) 36.3% | viability, T/C (second compound 0.0316 µM, first compound 0.01 µM) 31.1% | viability, T/C [1] 24.8% | viability, T/C [2] 25.9% | viability, T/C [3] 24% | viability, T/C [4] 21.5% | viability, T/C (second compound 0.1 µM, first compound 0.00316 µM) 14.6% | viability, T/C (second compound 0.1 µM, first compound 0.01 µM) 12.9% | viability, T/C [5] 18.3% | viability, T/C [6] 11.5% | viability, T/C [7] 12.6% | viability, T/C [8] 11.8%

CCCS(=O)(=O)Nc1ccc(F)c(C(=O)c2c[nH]c3ncc(-c4ccc(Cl)cc4)cc23)c1F + Cc1nc(NC(=O)N2CCCC2C(N)=O)sc1-c1ccnc(C(C)(C)C(F)(F)F)c1
active: viability, T/C (second compound 0.0316 µM, first compound 10 µM) 7.45% | viability, T/C (second compound 10 µM, first compound 0.0316 µM) 7.33% | viability, T/C (second compound 10 µM, first compound 0.1 µM) 7.82% | viability, T/C (second compound 10 µM, first compound 0.316 µM) 7.92% | viability, T/C (second compound 10 µM, first compound 1 µM) 10% | viability, T/C (second compound 10 µM, first compound 3.16 µM) 9.86% | viability, T/C (second compound 10 µM, first compound 10 µM) 4.55%
4.36 µM: IC50 (second compound 0.0316 µM)
4.38 µM: IC50 (second compound 0.1 µM)
< 0.0316 µM: IC50 (second compound 1 µM) | IC50 (second compound 3.16 µM) | IC50 (second compound 10 µM)
inactive: viability, T/C [1] 75.6% | viability, T/C [2] 83.1% | viability, T/C [3] 88.1% | viability, T/C [4] 92.9% | viability, T/C (second compound 0.0316 µM, first compound 3.16 µM) 66.4% | viability, T/C [5] 84.8% | viability, T/C [6] 78.3% | viability, T/C [7] 65% | viability, T/C [8] 74% | viability, T/C (second compound 0.1 µM, first compound 3.16 µM) 66% | viability, T/C (second compound 0.1 µM, first compound 10 µM) 9.98% | viability, T/C [9] 53.6% | viability, T/C [10] 55.1% | viability, T/C [11] 51.4% | viability, T/C [12] 49.2% | viability, T/C (second compound 0.316 µM, first compound 3.16 µM) 39.8% | viability, T/C (second compound 0.316 µM, first compound 10 µM) 10.4% | viability, T/C [13] 33.3% | viability, T/C [14] 26.5% | viability, T/C [15] 34.3% | viability, T/C [16] 39.8% | viability, T/C (second compound 1 µM, first compound 3.16 µM) 35.9% | viability, T/C (second compound 1 µM, first compound 10 µM) 7.76% | viability, T/C (second compound 3.16 µM, first compound 0.0316 µM) 16.6% | viability, T/C (second compound 3.16 µM, first compound 0.1 µM) 16.3% | viability, T/C (second compound 3.16 µM, first compound 0.316 µM) 17.8% | viability, T/C (second compound 3.16 µM, first compound 1 µM) 19.3% | viability, T/C (second compound 3.16 µM, first compound 3.16 µM) 16.6% | viability, T/C (second compound 3.16 µM, first compound 10 µM) 7.14%
0.858 µM: IC50 (second compound 0.316 µM)
